Reference: patent US20140248212A1, “NON-IMMUNOGENIC POSITRON EMISSION TOMOGRAPHY REPORTER GENE SYSTEMS” (THE REGENTS OF THE UNIVERSITY OF CALIFORNIA, priority 2011, published 2014)
Changes are numbered by the printed parent chain. Entries after “also recorded” stand apart in the source; their conditions may differ.

Experiments:
WT TK2 [1] = conditions: reported by Ponomarev et al. 2007; cited from earlier work
thymidine kinase 2 (TK2) = target: T1, thymidine kinase 2 (TK2) (Homo sapiens, UniProt O00142); conditions: cited from earlier work
T1 sequence (O00142 34-265): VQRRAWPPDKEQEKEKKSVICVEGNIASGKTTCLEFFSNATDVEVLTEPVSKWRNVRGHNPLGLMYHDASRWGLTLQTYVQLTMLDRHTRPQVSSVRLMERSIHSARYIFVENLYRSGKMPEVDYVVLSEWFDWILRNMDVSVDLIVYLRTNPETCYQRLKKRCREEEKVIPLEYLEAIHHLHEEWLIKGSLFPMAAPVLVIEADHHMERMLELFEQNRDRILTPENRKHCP

[2] = accumulation in liver, small intestine, kidneys, urinary bladder only; cited from earlier work
WT TK2 [3] = target: T2, WT TK2 (Homo sapiens, UniProt O00142); assay: Kinetic analyses of recombinant TK2 (NADH-dependent enzyme coupled assay), WT TK2; assay type: biochemical; conditions: 37° C., 1 mM ATP
T2 construct: hexahistidine (N, cleaved yes); SUMO (N, cleaved yes); made in house; host or cells: Escherichia coli BL21 (DE3) C41, modified pET14b
T2 sequence (O00142 51-265): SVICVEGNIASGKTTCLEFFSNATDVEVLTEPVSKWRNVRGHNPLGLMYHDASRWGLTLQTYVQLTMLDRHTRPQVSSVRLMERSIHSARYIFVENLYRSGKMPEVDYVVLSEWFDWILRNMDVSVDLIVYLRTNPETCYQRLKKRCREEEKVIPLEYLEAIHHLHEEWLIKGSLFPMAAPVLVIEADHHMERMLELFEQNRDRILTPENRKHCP

TK2-N93D/L109F = target: T3, TK2-N93D/L109F (Homo sapiens, UniProt O00142, L109F/N93D); assay: Kinetic analyses of recombinant TK2 (NADH-dependent enzyme coupled assay), TK2-N93D/L109F; assay type: biochemical; conditions: 37° C., 1 mM ATP
T3 construct: hexahistidine (N, cleaved yes); SUMO (N, cleaved yes); made in house; host or cells: Escherichia coli BL21 (DE3) C41, modified pET14b
T3 sequence (O00142 51-265 N93D/L109F): T2 sequence (O00142 51-265) with N43D, L59F
Procedure: FIG. 34 provides a table that illustrates the kinetics of the phosphorylation of D and L-nucleosides by the TK2 mutants. Kinase assays were performed with recombinant protein with 200 μM of the listed substrate.

[4] = target: deoxycytidine kinase (dCK) (Homo sapiens, UniProt P27707); conditions: cited from earlier work
TK2-N93D = target: T4, TK2-N93D (Homo sapiens, UniProt O00142, N93D); assay: Kinetic analyses of recombinant TK2 (NADH-dependent enzyme coupled assay), TK2-N93D; conditions: 37° C., 1 mM ATP
T4 sequence (O00142 51-265 N93D): T2 sequence (O00142 51-265) with N43D
Procedure: (§4) A NADH-dependent enzyme coupled assay (see, e.g. Agarwal, K. C., et al. (1978) Methods Enzymol. 51, 483-490) was used. Using a Cary UV spectrophotometer, measurements were made in triplicate at 37° C. in a buffer containing 100 mM Tris, pH 7.5, 100 mM KCl, 5 mM MgCl2, and 1 mM ATP. For data in which kobs is given, a single nucleoside concentration of 200 μM was used. For data in which both Km and kcat are given, the nucleoside concentration was varied between 15 and 500 μM. TK2 concentration in the cuvette was 400 nM. Data were fit to the Michaelis-Menten equation using SigmaPlot. […] Therefore, all of the kinetic data using the Michaelis-Menten equation without the Hill coefficient is presented.

TK2-L109F = target: T5, TK2-L109F (Homo sapiens, UniProt O00142, L109F); assay: Kinetic analyses of recombinant TK2 (NADH-dependent enzyme coupled assay), TK2-L109F; conditions: 37° C., 1 mM ATP
T5 sequence (O00142 51-265 L109F): T2 sequence (O00142 51-265) with L59F
Procedure: as §4

[5] = Biodistribution of PET reporter probes in mice (microPET/CT); assay type: in vivo, C57/BL6 mice
Procedure: To identify candidate PRPs, eight nucleoside analogs (FIG. 7A) were synthesized that were amenable to ^18F labeling (the first criterion for PRPs). To identify PRP candidates with rapid clearance from normal tissues and low overall background (second criterion for PRGs), biodistribution studies in mice were performed. It was observed that natural (D) nucleosides had higher background than non-natural (L) nucleoside analogs. […] The next step was to identify a human nucleoside kinase that phosphorylates L-[^18F]FMAU and L-[^18F]FEAU, and can be converted into a new PRG that matches four criteria:
Initially, a group of nucleoside analogs amenable to fluorine-18 labeling were identified. These PET tracers, 5 of which were novel, were then screened to determine their biodistribution in C57/BL6 mice (n=3 for each PET tracer) through dynamic microPET scans. […] Rational design is utilized to introduce mutations into human nucleoside kinase thymidine kinase 2 (TK2) to improve the affinity of the kinase for the top candidate probe. The sensitivity and specificity of the novel PET reporter probe/gene pair was then determined in vitro and in vivo using a murine cancer model.
(§1) Animal studies were approved and carried out according to specific guidelines. C57/BL6 mice were injected with the indicated probe and underwent micro-PET/CT analyses at 1- and 3-h post probe injection (Inveon, Siemens Medical Solutions USA Inc.; microCAT; Imtek Inc.). For tumor imaging studies, SCID mice were injected subcutaneously on day −7 in the right and left flanks with 1×10^6 L1210-PRG-expressing cells in 50% v/v phosphate-buffered saline and 50% v/v Matrigel™ (BD Biosciences). For imaging experiments, mice were kept warm and under gas anesthesia (2% v/v isoflurane) and were injected intravenously with 200 μCi of ^18F-labeled probes. A 3-h interval was allowed between probe administration and microPET/CT scanning Static microPET images were acquired for 600 s. Image data were evaluated in three-dimensional histograms and reconstructed with a zoom factor of 2.1 using three-dimensional ordered set expectation maximization (OSEM) with 2 iterations followed by MAP (maximum a posteriori) reconstruction with 18 iterations (beta=0.1). Images were analyzed using OsiriX Imaging Software Version 3.8.

[6] = Human whole-body PET/CT biodistribution of PET reporter probes; assay type: in vivo
Description: All studies involving human volunteers were approved. A healthy person and a healthy volunteer were recruited for the L-^18F-FMAU biodistribution study. Each volunteer received a bolus intravenous injection of ˜56 MBq (1.5 mCi) sterile L-^18F-FMAU and had four consecutive whole-body (starting from just above the head to above the knees, 6 bed positions, 5-min scan at each bed position) PET scans (Biograph 64, Siemens), with the first scan starting shortly after intravenous injection of L-^18F-FMAU. A low dose CT scan was also obtained for attenuation correction. Volunteers urinated after all scans had been performed. The region of interest analysis was performed to measure mean standard uptake values of L-^18F-FMAU in major organs/tissues. To illustrate the biodistribution of ^18F-FHBG, unpublished scan from a previous study (see, e.g. Yaghoubi, S. S., et al. (2009) Nat. Clin. Pract. Oncol. 6, 53-58) was used.

[7] = test system: L1210 tumors expressing WT TK2; assay: microPET/CT of SCID mice bearing L1210-PRG tumors (WT TK2); assay type: in vivo; conditions: 3 hrs post-injection, FIG. 10D
Description: (§2) To compare TK2, TK2-N93D and HSV1-sr39tk in vivo, PRG-expressing L1210 cells were implanted subcutaneously in SCID mice that were then scanned with L-[^18F]FMAU (FIG. 10A) and [^18F]FHBG (FIG. 10C) on consecutive days. […] Signals obtained with sr39tk were slightly higher than those obtained with the human TK2-N93D PRG (the difference was not statistically significant). […] L-[^18F]FMAU accumulation in TK2-N93D transduced tumors was ˜20 times higher than the accumulation in tumors transduced with the control (eYFP only) vector. While this ratio is higher than the 6.67 ratio reported for WT TK2 as a PRG with D-[^18F]FEAU as the PRP (see, e.g. Ponomarev, V., et al. J Nucl Med 48:819-826, 2007), the HSV1-sr39tk/[^18F]FHBG combination still outperforms the TK2-N93D/L-[^18F]FMAU combination by ˜2-fold. […]
(§3) Animal studies were approved and carried out according to specific guidelines. […] Image data were evaluated in three-dimensional histograms and reconstructed with a zoom factor of 2.1 using three-dimensional ordered set expectation maximization (OSEM) with 2 iterations followed by MAP (maximum a posteriori) reconstruction with 18 iterations (beta=0.1). Images were analyzed using OsiriX Imaging Software Version 3.8.

[8] = test system: L1210 tumors expressing TK2-N93D; assay: microPET/CT of SCID mice bearing L1210-PRG tumors (TK2-N93D); assay type: in vivo; conditions: 3 hrs post-injection, FIG. 10D
Description: To compare TK2, TK2-N93D and HSV1-sr39tk in vivo, PRG-expressing L1210 cells were implanted subcutaneously in SCID mice that were then scanned with L-[^18F]FMAU (FIG. 10A) and [^18F]FHBG (FIG. 10C) on consecutive days. […] Signals obtained with sr39tk were slightly higher than those obtained with the human TK2-N93D PRG (the difference was not statistically significant). […] L-[^18F]FMAU accumulation in TK2-N93D transduced tumors was ˜20 times higher than the accumulation in tumors transduced with the control (eYFP only) vector. While this ratio is higher than the 6.67 ratio reported for WT TK2 as a PRG with D-[^18F]FEAU as the PRP (see, e.g. Ponomarev, V., et al. J Nucl Med 48:819-826, 2007), the HSV1-sr39tk/[^18F]FHBG combination still outperforms the TK2-N93D/L-[^18F]FMAU combination by ˜2-fold. The significance of the 2-fold difference for the sensitivity of the new TK2-N93D PRG can be further investigated in the animal models discussed below (see, e.g. Gerth, M. L., et al. Biochem Biophys Res Commun 354:802-807, 2007; Liu, L., et al. Nucleic Acids Res 37:4472-4481, 2009; Iyidogan, P., et al. Biochemistry 47:4711-4720, 2008; Lutz, S., et al. Chimia (Aarau) 63:737-744 2009).
as §1

[9] = test system: L1210 tumors expressing HSV1-sr39tk; assay: microPET/CT of SCID mice bearing L1210-PRG tumors (HSV1-sr39tk); assay type: in vivo
Description: as §2
as §3, with “3.8. […]” for “3.8.”

deoxycytidine kinase (dCK), sequence (P27707 whole entry): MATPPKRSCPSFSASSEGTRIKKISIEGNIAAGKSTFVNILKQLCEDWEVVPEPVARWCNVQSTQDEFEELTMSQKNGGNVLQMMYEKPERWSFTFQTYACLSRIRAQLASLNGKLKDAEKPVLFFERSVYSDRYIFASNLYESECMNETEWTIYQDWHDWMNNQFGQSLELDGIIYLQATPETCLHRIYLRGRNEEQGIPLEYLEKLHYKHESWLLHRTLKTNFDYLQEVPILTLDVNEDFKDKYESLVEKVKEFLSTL

Structure (SMILES): CCc1cn([C@@H]2O[C@H](CO)[C@@H](O)[C@@H]2F)c(=O)[nH]c1=O [D-[^18F]FEAU, 2′-deoxy-2′-^18F-5-ethyl-1-β-D-arabinofuranosyluracil]
- ratio of accumulation, PRG versus control (WT TK2 [1]): 6.67
- activity of kinase towards nucleoside analog (thymidine kinase 2 (TK2)): active towards L-FMAU, D-
- biodistribution as a candidate PRP [2]: favorable biodistribution

Structure (SMILES): Cc1cn([C@H]2O[C@@H](CO)[C@H](O)[C@H]2F)c(=O)[nH]c1=O [L-FMAU]
- kcat (L-FMAU)/kcat (D-dT) ratio (WT TK2 [3]): 3.7
- increase of kcat compared with TK2 (TK2-N93D/L109F): 100%
- kcat (L-FMAU)/kcat (D-dT) ratio (TK2-N93D/L109F): 14.9
- kcat (L-FMAU)/kcat (D-dT) ratio, higher than that for TK2 (TK2-N93D/L109F): 4 fold
- kcat (L-FMAU)/kcat (D-dT) ratio, higher than that for TK2-N93D (TK2-N93D/L109F): ~40%
- activity of kinase towards nucleoside analog (thymidine kinase 2 (TK2)): substrate for human TK2; also recorded: active towards L-FMAU, D-
- activity of kinase towards nucleoside analog [4]: Very low activity with L-FMAU
- decrease of kcat relative to WT TK2 (TK2-N93D): 32%
- increase of kcat/Km compared with WT TK2 (TK2-N93D): 77%
- kcat (L-FMAU)/kcat (D-dT) ratio compared with wild type (TK2-N93D): nearly triples
- kcat (L-FMAU)/kcat (D-dT) ratio (TK2-L109F): 2.4

Structure (SMILES): Nc1nc2c(ncn2CCC(CO)C[18F])c(=O)[nH]1 (stereo not drawn) [^18F-FHBG, 9-[4-[^18F]fluoro-3-(hydroxymethyl)butyl]guanine, reference compound]
- accumulation in the liver ([5]; 3-h time point): neither probe showed any accumulation
- accumulation in the gallbladder ([5]; 3 h after administration): 7.45±5.31 % injected dose/g
- accumulation in the gallbladder, 18F-FHBG relative to L-18F-FMAU ([5]; 3 h after administration): 4 times
- retention in the abdominal cavity, 18F-FHBG relative to L-18F-FMAU ([5]; 3 h after administration): three times higher
- retention in the thoracic cavity ([5]; 3 h after administration): very low retention
- signals in the GI tract ([5]; 3 h after administration): detected throughout the GI tract
- abdominal background ([5]; mice, compared with [18F]FHBG): high abdominal background
- tissues with relatively high signals ([6]; 2 h post-administration): relatively high signals were observed in liver, kidneys, gall bladder, bladder, and the GI tract
- tracer background within abdomen and pelvis ([6]; whole-body PET/CT, human): high abdominal background
- [18F]FHBG accumulation in tumors [7]: Neither WT TK2 nor TK2-N93D expressing tumors accumulated detectable amounts
- [18F]FHBG accumulation in tumors [8]: Neither WT TK2 nor TK2-N93D expressing tumors accumulated detectable amounts
- probe uptake in L1210 tumors ([9]; 18F-FHBG, 3 h post-injection): 24.1±6.2 % injected dose/g
- HSV1-sr39tk/[18F]FHBG combination outperforms TK2-N93D/L-[18F]FMAU combination ([9]; tumor to control ratio): ~2 fold
